# Source: article PMC6949951, “α-Glucosidase Inhibition and Molecular Docking Studies of Natural Brominated Metabolites from Marine Macro Brown Alga Dictyopteris hoytii” (Marine Drugs, 2019)
# Read-outs that look alike come from different tables or passages of the source.
# Target: α-Glucosidase (E.C.3.2.1.20) enzyme (Saccharomyces cerevisiae) (Saccharomyces cerevisiae, UniProt P53341)
# Assay: biochemical
# Type: biochemical
# Procedure: α-Glucosidase (E.C.3.2.1.20) enzyme (Saccharomyces cerevisiae) inhibition activity was carried out by using previously described method. The enzyme (0.2 μ/mL) solution in phosphate buffered saline (PBS) (0.1 M, pH 6.8) with different concentrations of tested compounds (1, 0.5, 0.25, 0.125, 0.0625 and 0.0312 mM) at 37 °C were incubated for 15 min. After incubation, 0.7 mM p-nitrophenyl-α-D-glucopyranoside (a chromogenic substrate) was added and the change in absorbance was recorded at 400 nm for 30 min by microplate spectrophotometer (xMark™, BIO-RAD, California, LA, United States) per production of p-nitrophenyl. Al the isolated compounds were dissolve in DMSO (7.5% final) along with control. […] The IC50 values were calculated by using different concentrations of tested compounds. The results were processed by MS-Excel and Ez-fit software programs. The % inhibition was calculated by using the following formula:% Inhibition = 100 −(OD test well/OD control) × 100.
# [1] = tested up to 1.0 mM, PBS pH 6.8, 37 °C, NA = not active, read-out: α-Glucosidase inhibitory activity IC50
# [2] = IC50 (Table 2, repeated beside docking results), S. cerevisiae α-glucosidase
# [3] = α-Glucosidase inhibitory activity IC50, tested up to 1.0 mM, PBS pH 6.8, 37 °C, NA = not active
# [4] = S. cerevisiae α-glucosidase, read-out: IC50 (Table 2, repeated beside docking results)
# Chain of α-Glucosidase (E.C.3.2.1.20) enzyme (Saccharomyces cerevisiae) (P53341 whole entry): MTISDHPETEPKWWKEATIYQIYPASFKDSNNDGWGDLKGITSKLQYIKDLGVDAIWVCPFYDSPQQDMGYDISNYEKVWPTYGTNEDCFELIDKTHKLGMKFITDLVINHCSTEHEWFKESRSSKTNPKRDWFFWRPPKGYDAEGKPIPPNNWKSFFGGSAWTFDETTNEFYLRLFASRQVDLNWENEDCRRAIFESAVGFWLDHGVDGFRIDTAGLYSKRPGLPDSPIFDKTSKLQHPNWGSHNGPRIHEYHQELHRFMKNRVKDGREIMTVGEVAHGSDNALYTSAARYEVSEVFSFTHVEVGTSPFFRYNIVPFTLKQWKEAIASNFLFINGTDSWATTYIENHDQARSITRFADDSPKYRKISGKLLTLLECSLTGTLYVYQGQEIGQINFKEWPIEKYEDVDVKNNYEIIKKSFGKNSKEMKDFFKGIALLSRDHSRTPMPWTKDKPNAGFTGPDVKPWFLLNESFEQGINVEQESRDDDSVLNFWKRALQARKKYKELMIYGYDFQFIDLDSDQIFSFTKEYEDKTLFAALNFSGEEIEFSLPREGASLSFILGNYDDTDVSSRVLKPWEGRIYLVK
Compound,IC50 [1] [µM],IC50 [3] [µM],other results
"CCCCCCCCCCCCCCCCCCC=CCCCCCCCC(=O)O [Compound 7, n-Octacos-9-enoic acid]",30.5 ± 0.41,–,–
"C/C=C(\CC[C@@H](C)[C@H]1CC[C@H]2[C@@H]3CC=C4C[C@@H](O)CC[C@]4(C)[C@H]3CC[C@]12C)C(C)C [Compound 3, Fucosterol]",–,289 ± 4.91,IC50 [2]: 289 µM
"CCCCCCCCCCCCCCCC(=O)OC [Compound 4, n-Hexadecanoic acid, methyl ester]",–,–,α-glucosidase inhibition in words (in vitro): inactive
"CCOC(=O)c1ccc(C(=O)OCC)c(Br)c1 [Compound 2, Diethyl 2-bromobenzene 1,4-dioate]",–,~234,IC50: 234 µM
"CCCCCCCCC=CCCCCCCCCCC(=O)O [Compound 8, 11-Eicosenoic acid]",–,480,IC50 [2]: 480 µM
"CCCCCCCCCCCCCCCCCCCCCCCCCC(=O)O [Compound 6, Cerotic acid]",659.8 ± 2.15,–,IC50 [4]: 660 µM
"Ethyl methyl 2-bromobenzene 1,4-dioate [Compound 1]",522 ± 0.51,–,IC50 [4]: 522 µM
